Data taken from patent publication US12338205B2, “Crystalline form of 3-((L-valyl) amino)-1-propanesulfonic acid” (RISEN (SUZHOU) PHARMA TECH CO., LTD., priority 2018, dated 2025).

Key:
[1] = Pharmacokinetics comparative experiment, plasma concentration by LC/MS2 after capsule intragastric administration; type: in vivo; conditions: SD rats, 133 mg/kg, solid capsule intragastric administration
Excerpt: By means of a pharmacokinetics comparative experiment, the […] feature of the crystalline form I provided herein after administration is compared with that of the amorphous solid of Example 1 as a reference sample.
SD rats (all male, weight of 260-280 g) were randomizely grouped, each group of 3 animals. The medication group received the crystalline form compound (No. S08S02S15a) of the Example 2, the crystalline form compound (No. S08S04S22a) of the Example 7, and the crystalline form compound (No. S08S19S24a) of the Example 8, respectively, and the control group received the reference sample (the amorphous solid of Example 1). The animals were fasted for 12 hours before administration, and the dosage of administration was 133 mg/kg. The corresponding medications were administered by intragastric administration using a solid capsule administration system (Size 9el Rat Box+Foam+Funnel+Syringe). Rat plasma samples were collected before administration, and 0.08, 0.16, 0.33, 0.5, 1, 1.5, 2, 3, 4, 6, and 8 h after administration, respectively. After heparin tube anticoagulation, centrifugation was performed at 5000 rpm for 10 min at a temperature of 4° C. A plasma supernatant sample was taken and subjected to protein precipitation using methanol, and then, the medication concentration in the plasma was monitored by LC/MS2.

[2] = Thermogravimetric analysis (TGA); type: physicochemical; conditions: for slow weight loss (TGA): before about 120° C., showing that it is an anhydrate; for decomposition temperature (TGA): nitrogen, ramp 10° C./min
Method: The thermogravimetric analyzer (TGA) involved herein is Q500TGA from TA Instruments; detection conditions: a platinum crucible, a protective atmosphere of nitrogen, a gas flow rate of 40 mL/min; and the following detection method: a Hi-Res sensitivity of 3.0, ramp 10.00° C./min, res 5.0 to 120.00° C., and ramp 10.00° C./min to 350° C.

[3] = compared with amorphous solid of Example 1

With `CC(C)[C@H](N)C(=O)NCCCS(=O)(=O)O` [Crystalline Form I, 3-((L-valyl)amino)-1-propanesulfonic acid] the “exposure AUC” value [1, 3] was “effectively improve”, the “half-life period T1/2” value [1, 3] was “effectively improve” and the “maximum blood concentration Cmax” value [1, 3] was “effectively improve”. For the same compound, the medication dissolution ([1]; compared with reference sample (amorphous solid of Example 1), FIGS. 21-24) was “improving”, the “slow weight loss (TGA)” value ([2]; listed as Example 2) was “about 0.5 wt %” and the “slow weight loss (TGA)” value ([2]; listed as Example 6) was “about 0.5 wt %”. For the same compound, the “slow weight loss (TGA)” value ([2]; listed as Example 7) was “about 1.4 wt %”, the “slow weight loss (TGA)” value ([2]; listed as Example 8) was “about 0.2 wt %” and the “slow weight loss (TGA)” value ([2]; listed as Example 9) was “about 1.2 wt %”. For the same compound, the “slow weight loss (TGA)” value ([2]; listed as Example 14) was “about 0.5 wt %”, the “slow weight loss (TGA)” value ([2]; listed as Example 24) was “about 0.6 wt %” and the “decomposition temperature (TGA)” value ([2]; listed as Example 2) was “about 307 °C”. The “decomposition temperature (TGA)” value ([2]; listed as Example 6) was “about 300 °C”, the “decomposition temperature (TGA)” value ([2]; listed as Example 7) was “about 302 °C” and the “decomposition temperature (TGA)” value ([2]; listed as Example 8) was “about 314 °C”. The “decomposition temperature (TGA)” value ([2]; listed as Example 9) was “about 303 °C”, the “decomposition temperature (TGA)” value ([2]; listed as Example 14) was “about 310 °C” and the “decomposition temperature (TGA)” value ([2]; listed as Example 24) was “about 317 °C”.
